In brackets after ≈: the same amount, converted by molar mass.
Key:
Staphylococcus aureus [1] = test: Antibacterial activity against methicillin-resistant Staphylococcus aureus XJ 75302 after 20 hrs by CLSI broth microdilution method; type: functional
Staphylococcus aureus [2] = test: Antibacterial activity against Staphylococcus aureus ATCC 29213 after 20 hrs by CLSI broth microdilution method; type: functional
[3] = Cytotoxicity against human PANC1 cells after 48 hrs by MTT assay; type: functional, cell-based; settings: PANC-1, 48 h
[4] = Cytotoxicity against human HuTu 80 cells after 48 hrs by MTT assay; type: functional, cell-based; settings: HuTu80, 48 h
4T1 [5] = test: Cytotoxicity against mouse 4T1 cells after 48 hrs by MTT assay; type: functional, cell-based; settings: 4T1, 48 h
Staphylococcus aureus [6] = test: Antibacterial activity against methicillin-resistant Staphylococcus aureus USA 300 LAC after 20 hrs by CLSI broth microdilution method; type: functional
Staphylococcus aureus [7] = test: Antibacterial activity against methicillin-resistant Staphylococcus aureus Mu50 ATCC 700699 after 20 hrs by CLSI broth microdilution method; type: functional
4T1 [8] = test: Induction of apoptosis in mouse 4T1 cells assessed as late apoptotic cells at 5 ug/ml after 48 hrs by Annexin V/Alexa Fuor 488/PI-staining based flow cytometric analysis (Rvb=3.5%); type: functional
4T1 [9] = test: Induction of apoptosis in mouse 4T1 cells assessed as necrotic cells at 5 ug/ml after 48 hrs by Annexin V/Alexa Fuor 488/PI-staining based flow cytometric analysis (Rvb=0.5%); type: functional
4T1 [10] = test: Induction of apoptosis in mouse 4T1 cells assessed as viable cells at 5 ug/ml after 48 hrs by Annexin V/Alexa Fuor 488/PI-staining based flow cytometric analysis (Rvb= 91.7%); type: functional; settings: 4T1, 48 h, read-out: Activity
4T1 [11] = test: Induction of apoptosis in mouse 4T1 cells assessed as early apoptotic cells at 5 ug/ml after 48 hrs by Annexin V/Alexa Fuor 488/PI-staining based flow cytometric analysis (Rvb=4.4%); type: functional
4T1 [12] = test: Induction of apoptosis in mouse 4T1 cells assessed as increase in early and late apoptotic cells at 5 ug/ml after 48 hrs by Annexin V/Alexa Fuor 488/PI-staining based flow cytometric analysis relative to vehicle control; type: functional

| Compound | MIC (Staphylococcus aureus [1]; XJ 75302, 20 h) [µg/mL] | MIC (Staphylococcus aureus [2]; ATCC 29213, 20 h) [µg/mL] | IC50 [3] [µg/mL] | IC90 [3] [µg/mL] | IC50 [4] [µg/mL] | IC90 [4] [µg/mL] | IC50 (4T1 [5]) [µg/mL] | IC90 (4T1 [5]) [µg/mL] | MIC (Staphylococcus aureus [6]) [µg/mL] | MIC (Staphylococcus aureus [7]; Mu50 ATCC 700699, 20 h) [µg/mL] | Activity (4T1 [8]) [%] | Activity (4T1 [9]) [%] | viability at 5 µg/mL (4T1 [10]) [%] | Activity (4T1 [11]) [%] | fold change (FC) (4T1 [12]) | MIC (Staphylococcus aureus [1]) [µg/mL] | MIC (Staphylococcus aureus [2]) [µg/mL] | MIC (Staphylococcus aureus [7]) [µg/mL] |
| --- | --- | --- | --- | --- | --- | --- | --- | --- | --- | --- | --- | --- | --- | --- | --- | --- | --- | --- |
| CC1(C)CC(=O)C2=C(C1)OC(N)=C(C#N)C2c1cccc(C(F)(F)F)c1 (stereo not given) | > 256 | > 256 | 248 (≈ 685 µM) | 503 (≈ 1390 µM) | 388 (≈ 1070 µM) | 788 (≈ 2170 µM) | 287 (≈ 791 µM) | 575 (≈ 1590 µM) | > 256 | > 256 |  |  |  |  |  |  |  |  |
| O=c1oc2ccccc2c(O)c1C(c1ccc(Br)cc1)c1c(O)c2ccccc2oc1=O | 16 (≈ 32.6 µM) | 16 (≈ 32.6 µM) | 31.8 (≈ 64.7 µM) | 61.4 (≈ 125 µM) | 29.7 (≈ 60.5 µM) | 52.6 (≈ 107 µM) | 19.3 (≈ 39.2 µM) | 36.7 (≈ 74.7 µM) | 8 (≈ 16.3 µM) | 8 (≈ 16.3 µM) | 25.5 | 0.3 | 30.2 | 44 | >8 |  |  |  |
| CC(C)(O/N=C(\C(=O)N[C@@H]1C(=O)N2C(C(=O)[O-])=C(C[n+]3ccccc3)CS[C@H]12)c1csc(N)n1)C(=O)O [CEFTAZIDIME] | > 256 | > 8 |  |  |  |  |  |  | 64 (≈ 117 µM) | 256 (≈ 468 µM) |  |  |  |  |  |  |  |  |
| C[C@H]1COc2c(N3CCN(C)CC3)c(F)cc3c(=O)c(C(=O)O)cn1c23.C[C@H]1COc2c(N3CCN(C)CC3)c(F)cc3c(=O)c(C(=O)O)cn1c23.O [LEVOFLOXACIN] | 4 | < 0.125 |  |  |  |  |  |  | 8 | 4 |  |  |  |  |  |  |  |  |
| CC(C)(C)c1ccc(C(c2c(O)c3ccccc3oc2=O)c2c(O)c3ccccc3oc2=O)cc1 | 16 (≈ 34.2 µM) | 16 (≈ 34.2 µM) | 28 (≈ 59.7 µM) | 53.2 (≈ 113 µM) | 31.1 (≈ 66.5 µM) | 55.5 (≈ 119 µM) | 24.6 (≈ 52.4 µM) | 47.1 (≈ 101 µM) | 32 (≈ 68.3 µM) | 16 (≈ 34.2 µM) |  |  |  |  |  |  |  |  |
| COc1cc(C2C(C#N)=C(N)OC3=C2C(=O)CCC3)ccc1O (stereo not given) | > 256 | > 256 | 232 (≈ 744 µM) | 462 (≈ 1480 µM) | 208 (≈ 666 µM) | 399 (≈ 1280 µM) | 114 (≈ 364 µM) | 219 (≈ 700 µM) | > 256 | > 256 |  |  |  |  |  |  |  |  |
| N#CC1=C(N)OC2=C(C(=O)CCC2)C1c1cccc(Br)c1 (stereo not given) | > 256 | > 256 | 368 (≈ 1070 µM) | 704 (≈ 2040 µM) | 281 (≈ 814 µM) | 543 (≈ 1570 µM) | 157 (≈ 455 µM) | 287 (≈ 830 µM) | > 256 | > 256 |  |  |  |  |  |  |  |  |
| CC1(C)CC(=O)C2=C(C1)OC(N)=C(C#N)C2c1ccccc1C#N (stereo not given) | > 256 | > 256 | 242 (≈ 757 µM) | 512 (≈ 1600 µM) | 414 (≈ 1300 µM) | 814 (≈ 2550 µM) | 249 (≈ 778 µM) | 503 (≈ 1580 µM) | > 256 | > 256 |  |  |  |  |  |  |  |  |
| N#CC1=C(N)Oc2c(c(=O)oc3ccccc23)C1c1ccc(C#N)cc1 (stereo not given) | > 256 | > 256 | 150 (≈ 439 µM) | 286 (≈ 838 µM) | 121 (≈ 355 µM) | 221 (≈ 648 µM) | 115 (≈ 336 µM) | 208 (≈ 609 µM) | > 256 | > 256 |  |  |  |  |  |  |  |  |
| O=c1oc2ccccc2c(O)c1C(c1ccc(F)c(Cl)c1)c1c(O)c2ccccc2oc1=O | 16 (≈ 34.4 µM) | 16 (≈ 34.4 µM) | 30.8 (≈ 66.2 µM) | 55.8 (≈ 120 µM) | 32.6 (≈ 70.1 µM) | 64.5 (≈ 139 µM) | 22.9 (≈ 49.3 µM) | 43.2 (≈ 92.9 µM) | 8 (≈ 17.2 µM) | 8 (≈ 17.2 µM) |  |  |  |  |  |  |  |  |
| N#CC1=C(N)Oc2c(c(=O)oc3ccccc23)C1c1ccc(Br)cc1 (stereo not given) | > 256 | > 256 | 176 (≈ 446 µM) | 328 (≈ 829 µM) | 140 (≈ 355 µM) | 274 (≈ 692 µM) | 96.2 (≈ 243 µM) | 172 (≈ 435 µM) | > 256 | > 256 |  |  |  |  |  |  |  |  |
| GENTAMICIN |  |  |  |  |  |  |  |  | 0.25 |  |  |  |  |  |  | 64 | 0.12 | 32 |
| COc1ccc(C2C(C#N)=C(N)Oc3c2c(=O)oc2ccccc32)cc1OC (stereo not given) | > 256 | > 256 | 168 (≈ 448 µM) | 310 (≈ 825 µM) | 132 (≈ 352 µM) | 232 (≈ 618 µM) | 107 (≈ 283 µM) | 194 (≈ 516 µM) | > 256 | > 256 |  |  |  |  |  |  |  |  |
| CC1(C)CC(=O)C2=C(C1)OC(N)=C(C#N)C2c1cccc(Oc2ccccc2)c1 (stereo not given) | > 256 | > 256 | 383 (≈ 991 µM) | 759 (≈ 1960 µM) | 900 (≈ 2330 µM) | 1700 (≈ 4400 µM) | 481 (≈ 1240 µM) | 927 (≈ 2400 µM) | > 256 | > 256 |  |  |  |  |  |  |  |  |
| CCN1CCN(C(=O)N[C@@H](C(=O)N[C@@H]2C(=O)N3[C@@H]2SC(C)(C)[C@@H]3C(=O)O)c2ccccc2)C(=O)C1=O [PIPERACILLIN] | > 128 | 2 (≈ 3.86 µM) |  |  |  |  |  |  | 8 (≈ 15.5 µM) | > 128 |  |  |  |  |  |  |  |  |
| N#CC1=C(N)OC2=C(C(=O)CCC2)C1c1cc(F)cc(F)c1 (stereo not given) | > 256 | > 256 | 319 (≈ 1060 µM) | 624 (≈ 2060 µM) | 446 (≈ 1480 µM) | 824 (≈ 2730 µM) | 164 (≈ 543 µM) | 308 (≈ 1020 µM) | > 256 | > 256 |  |  |  |  |  |  |  |  |
| CO/N=C(\C(=O)N[C@@H]1C(=O)N2C(C(=O)O)=C(CSc3nc(=O)c(O)nn3C)CS[C@H]12)c1csc(N)n1 [CEFTRIAXONE] | > 256 | 2 (≈ 3.61 µM) |  |  |  |  |  |  | 32 (≈ 57.7 µM) | 256 (≈ 462 µM) |  |  |  |  |  |  |  |  |

— ChEMBL document CHEMBL3632603, “Synthesis of biscoumarin and dihydropyran derivatives with promising antitumor and antibacterial activities” (Bioorg Med Chem Lett, 2015)
